Assay results taken from patent CN104546697A, “一种右旋布洛芬注射液药物组合物及其制备方法” (CHENGDU EASTON PHARMACEUTICAL Co Ltd, priority 2013, dated 2015).

Tests used:
[1] = test system: pain threshold in the mouse hot plate method [小鼠热板法痛阈]; test: Effect on pain threshold in the mouse hot plate method; assay type: in vivo, Kunming mouse, female; details: IV, dose exceeding 80mg/kg
[2] = test system: carrageenan-induced rise of body temperature in rats [大鼠角叉菜胶诱导的体温升高]; test: Effect on carrageenan-induced rise of body temperature in rats; assay type: in vivo, SD rat; details: rat, IV
[3] = background art; cited from earlier work

SMILES | analgesic effect above the best dose range [1] | dose range with the best, dose-dependent effect ([2]; carrageenan-induced rise of body temperature) | temperature-lowering effect above the best dose range ([2]; dose exceeding 40mg/kg) | pharmacological activity relative to levorotatory ibuprofen [3] [fold] | pharmacological activity relative to racemate [3] [fold] | pharmacological activity [3]
CC(C)Cc1ccc([C@H](C)C(=O)O)cc1 [右旋布洛芬] | 镇痛效果反而减弱 | 7.5~30 mg/kg | 降温效果反而减弱 | 160 | 1.6 | –
CC(C)Cc1ccc([C@@H](C)C(=O)O)cc1 [左旋布洛芬] | – | – | – | – | – | 非活性成分
